Reference: ChEMBL document CHEMBL1155572, “Sesquiterpene quinols/quinones from the Micronesian sponge Petrosaspongia metachromia” (J Nat Prod, 2000)
Converted amounts (≈) assume the structure as drawn.

Test: Toxicity against brine shrimp
Type: organism-based
Conditions: artemia, in vivo

COC(=O)c1cc(O)c(O)c2c1[C@]1(C)CC[C@H]3C(C)(C)CCC[C@]3(C)[C@H]1C2 [PELOROL]
LC50: 5 µg/mL (≈ 13.4 µM)
